Reference: patent US20210386828A1, “METHODS FOR ENHANCING CANCER IMMUNOTHERAPY” (The Regents of the University of California, priority 2018, published 2021)

Legend:
[1] = Cell death in vitro at the low Oxali dose; assay type: cell-based; conditions: Oxali dose used in the experiments (low dose)
From the text: Thus, for purposed of this disclosure, the term “low dose” may include a non-ICD amount of a cytostatic agent or a platinoid.
In the past, Oxali was studied as a prototype of anticancer drugs that are capable of inducing immunogenic cell death (ICD) and T-cell priming (Galluzzi et al., 2015). However, the exact mechanism of ICD induction is poorly defined, and it is not clear whether Oxali and similar drugs exert their immunogenic activity solely via ICD. Other studies have reported Oxali and several other platinoids to function as inducers of the integrated stress response (ISR) (Bruno et al., 2017; Kepp et al., 2015). Nevertheless, the mechanism of ISR activation by platinoids and its relevance for their immunostimulatory activity is unknown. […] Oxali treatment also results in induction of Interferon gamma receptor 2 (IFNγR2), through NF-κB signaling, which potentiates the response of MHC-I-expressing cancer cells to IFNγ produced by CD8^+ T cells that have been reinvigorated by ICI administration.

[2] = tested on: s.c. Myc-CaP, B16 or YUMM1.7 tumors; assay: Growth of subcutaneous tumors in mice under weekly Oxali and/or anti-PD-L1; assay type: in vivo, mouse
Experimental: (§1) FIGS. 7A-7G are pictorial and graphical diagrams showing that IFNγR2 induction is needed for the Oxali-potentiated response to anti-PDL1 therapy. […] After four treatment cycles, during which tumor size was measured, the mice were euthanized and analyzed. Significance was determined by Mann-Whitney and t-tests. Transient Cas9 expression was used to avoid any immune response to Cas9-molecules.
FIGS. 14A-14J are graphical diagrams showing that IFNγR2 expression is needed for platinoid-enhanced anti-PD-L1 responsiveness. […] After three cycles, the mice were euthanized, and tumor volume was determined. Significance was determined by t-tests (n=3). […] Tumor volume was determined using caliper. After three treatment cycles, the mice were euthanized and analyzed. Significance was determined by t-tests. Dots show averages and the brackets indicate±SEM (n=3). […] Each dot represents a mouse and each horizontal line indicates mean±SEM. […] Transient Cas9 expression was used to avoid any immune response to Cas9. Tumor growth was monitored using a caliper and analyzed using t-test. Each dot represents average and the brackets are SEM (n=3-5). […] Each dot represents a mouse and each horizontal line indicates the median.
The synergistic inhibition of Myc-CaP tumor growth by Oxali+anti-PD-L1 was attenuated by IFNγR2 ablation (FIGS. 7A and 14E). […]

[3] = tested on: Myc-CaP and TRAMP-C2 cells; assay: RNA-seq of mouse PCa cells incubated with platinoids; assay type: cell-based
Experimental: FIGS. 1E-1G show total RNA from Myc-CaP cells incubated with indicated agents for 24 hr was subjected to RNA-seq. Top 20 hallmark gene sets were sorted by normalized enrichment score (NES). Immune-related gene sets are in blue (IFNγ signaling in light blue).
The top 20 hallmark gene sets sorted by normalized enrichment score (NES) are shown to depict the Oxali- and Cis-induced responses determined by GSEA analysis. Immune-related gene sets are colored blue (IFNγ signaling in light blue). […] Immune-related gene sets are in blue (IFNγ signaling in light blue).
To investigate how low-dose Oxali affects the PCa transcriptome, RNA sequencing (RNA-seq) was conducted on mouse PCa cells (Myc-CaP and TRAMP-C2) incubated with 2 μM of either Oxali or Cisplatin (Cis), a platinoid that, unlike Oxali, minimally enhances the response to PD-L1 blockade or ISP ablation (Pfirschke et al., 2016; Shalapour et al., 2015).

[4] = tested on: Myc-CaP cells; assay: qRT-PCR of MHC-I component mRNAs in Myc-CaP cells; assay type: cell-based, mouse
From the text: (§2) Each dot represents an experiment and horizontal lines denote the median.

[5] = tested on: LMP7 (PSMB8); assay: Lysate LMP7 (PSMB8) immunoproteasome activity with specific fluorogenic peptide substrate; assay type: cell-based, mouse; conditions: low-dose
Experimental: Lysate LMP7 (PSMB8) immunoproteasome activity was measured using LMP7 (PSMB8) specific fluorogenic peptide substrate. […] Each dot is a single experiment and horizontal lines are the medians.

[6] = tested on: Myc-CaP cells; assay: Surface MHC (H-2Kq) expression by flow cytometry; assay type: cell-based, mouse; conditions: for surface expression of H-2Kq: agent as named
From the text: as §2

[7] = tested on: Myc-CaP cells; assay: Immunoblot of IRF1 and phosphorylated STAT1; assay type: cell-based, mouse; conditions: for IRF1 expression: Oxali at 2 μM
From the text: Protein loading was confirmed with tubulin antibodies.
The basis for the synergy between low-dose Oxali and IFNγ was investigated. […] Given the ability of Oxali to induce Ifngr2 mRNA expression, not only in Myc-CaP cells (FIG. 2D) but also in mouse and human melanoma cell lines (FIGS. 11C and 11D), it was postulated that the synergistic activation of IRF1 and STAT1 by Oxali plus IFNγ may be due to IFNγR2 induction.

[8] = tested on: Myc-CaP cells; assay: ATAC-seq of chromatin accessibility; assay type: cell-based, mouse; conditions: for accessibility of transcription factor binding sites at the Nfkb1 locus: 2 μM Oxali, 1 ng/mL IFNγ
From the text: FIGS. 4A-4D are pictorial and graphical diagrams showing low dose Oxali alters chromatin accessibility of MHC-I related genes. […] The Venn diagram compares gene expression between untreated and differently treated cells (left). The heat map depicts differentially expressed genes involved in the indicated pathways (right). […] The Venn diagram presents the number of binding site changes and overlaps after each treatment (left). FIGS. 4C-4D show detailed ATAC seq analyses of the Nfkb1 gene (FIG. 4C) and a mouse Chr17 gene cluster containing Psmb8, Psmb9, Tap1 and Tap2 (FIG. 4D). Changes in transcription factor (TF) binding site accessibility are compared to RNA seq results. The affected TF binding sites are depicted below each panel.
FIGS. 12A-12C are pictorial and graphical diagrams showing that low dose Oxali enhances chromatin accessibility of MHC-I related genes.
To better understand the transcriptional mechanisms underlying the response to Oxali, RNA-seq and ATAC-seq analyses were conducted on Myc-CaP cells that were incubated with either 2 μM Oxali, 1 ng/mL IFNγ, or a combination of the two. By coupling ATAC-seq, a method for assessing transcription factor binding site accessibility (Buenrostro et al., 2015), with RNA-seq, transcription factor loading can be correlated with actual transcriptional changes.
Of note, the NF-κB pathway, represented by the Nfkb1 gene, was stimulated by Oxali but not IFNγ. […] To examine activation of the antigen processing and presentation pathway, a gene cluster on mouse chromosome 17 harboring Psmb9, Tap1, Psmb8, and Tap2 was analyzed. […] However, IFNγ further enhanced transcription factor accessibility in Oxali-treated cells (FIG. 4D), an effect that was consistent with the transcriptomic analysis (FIG. 4A). […] Similarly, the Erap1 locus, which is induced by both Oxali and IFNγ, was made more accessible by Oxali relative to IFNγ treatment (FIG. 12C). […] The addition of IFNγ expanded this response to include E2F6, JUNB, HIF-lb, KLF3, and DMRT6 binding sites. Of note, the chromosome 17 MHC-I region opened by Oxali contained recognition sites for BORIS and CTCF, two general transcription factors responsible for chromatin opening (Li et al., 2012).

[9] = tested on: p300/CBP; assay: p300 immunoblot and imaging; assay type: cell-based, mouse
[10] = tested on: Myc-CaP cells; assay: Nuclear abundance of transcription factors (IB, flow cytometry); assay type: cell-based, mouse; conditions: 2 μM Oxali
[11] = tested on: s.c. Myc-CaP tumors; assay: qRT-PCR of total tumor RNA from treated mice; assay type: in vivo, mouse; conditions: low-dose
Experimental: as §1
The synergistic inhibition of Myc-CaP tumor growth by Oxali+anti-PD-L1 was attenuated by IFNγR2 ablation (FIGS. 7A and 14E). […] Importantly, Psmb9, Tap1, and Nlrc5 induction by Oxali+anti-PD-L1 was almost completely abolished after IFNγR2 ablation in Myc-CaP cells (FIGS. 7C and 14F). Oxali+anti-PD-L1 induced MHC-I (H-2Kq and H-2Dd) surface expression by tumor cells, which was also abolished by IFNγR2 ablation (FIG. 7D). Oxali+anti-PD-L1 had no effect on surface MHC-I (H-2Kq) or PD-L1 expression by tumor-infiltrating CD11b^+ myeloid cells in vivo (FIGS. 14G and 14H). […] Thus, Oxali-induced upregulation of MHC-I genes in malignant cells is important for the final recognition and killing stage of the cancer-immunity cycle (Chen and Mellman, 2013) but has no role in ICI-induced CTL reinvigoration.

[12] = tested on: bone marrow (BM)-derived macrophages; assay: Bone marrow derived macrophages, qRT-PCR and flow cytometry; assay type: cell-based, mouse
[13] = tested on: TRC2 cells expressing ovalbumin variants; conditions: Oxali-treated TRC2-N4 cells with OT-I CD8+ T cells
Experimental: FIGS. 2J-2L show TRC2 cells stable transfected with vectors expressing high, medium, and low affinity variants of Ovalbumin were incubated with 4 μM Oxali and/or CFSE-labeled OT-I cells for 72 hr and analyzed by flow cytometry using an antibody that recognizes [sequence] (SEQ ID NO: 24) bound to H-2Kb (FIG. 2J). The number of OT-I cells in each culture (FIG. 2K) and percentage of vital TRC2 cells (FIG. 2L) were determined by flow cytometry.

[14] = tested on: PC3, WM793, MIA PaCa-2, NSCLC and melanoma cell lines
Experimental: The stained cells were examined by indirect immunofluorescence. […] Surface HLA-ABC expression was determined by flow cytometry.

[15] = tested on: Ifngr2, Tap1 and Psmb8 promoters; assay: ChIP analysis of promoters
[16] = tested on: histone acetyltransferase (HAT); assay: HAT activity in lysates of treated cells
[17] = tested on: HDACs; assay: HDAC enzyme activity in extracts of treated cells; conditions: after 6 hours
[18] = tested on: Myc-CaP and TRC2 cells; assay: Immunoblot of immunoproteasome subunits PSMB8 and PSMB9; conditions: low-dose
[19] = tested on: Myc-CaP cells; assay: Stress, DNA damage and type I IFN responses (IB, qRT-PCR)
From the text: CRISPR-Cas9 was used to ablate cyclic GMP-AMP synthase (cGAS, encoded by Mb21d1) and Ifnar2 (FIG. 11K).

[20] = tested on: MC-38 cells; assay: Mass spectrometry peptidomic profiling of H-2Kb and H-2Db bound peptides; assay type: cell-based, mouse; conditions: H-2Db experiment
Experimental: Tubulin was used as loading control.
To confirm the ability of Oxali to potentiate antigen presentation, mass spectrometry-based peptidomic profiling of H-2Kb and H-2Db molecules isolated from MC-38 cells was conducted.

O=C1[O][Pt]2([NH][C@@H]3CCCC[C@H]3[NH]2)[O]C1=O [Oxali, oxaliplatin]
cell death in vitro [1]: 10-15%
subcutaneous (s.c.) tumor growth ([2]; Myc-CaP, B16, or YUMM1.7, weekly treatment): little effect
tumor regression in vivo ([2]; low-dose Oxali alone, mouse models of PCa): did not cause tumor regression in vivo
induction of gene set responsive to NF-κB-dependent TNF signaling ([3]; 2 μM, Myc-CaP): strongly induced
induction of IFNγ responsive gene set ([3]; 2 μM, compared with Cis): considerably stronger induction
induction of genes of the MHC-I antigen processing and presentation machinery ([3]; low-dose, Myc-CaP): strongly induced
induction of Nlrc5, Psmb9, Tap1, Ifngr2, Tapasin, and Erap1 mRNAs ([4]; 2 μM (Oxali and Cis) or 4 μM (Carbo), among the three platinoids): most efficient induction
Ifngr2 gene expression ([4]; Myc-CaP cells): induced
effect of exogenous IFNγ on induction of MHC-I antigen presentation and processing genes by the platinoid ([4]; plus IFNγ): strongly potentiated by exogenous IFNγ
immunoproteasome activity, hydrolysis of LMP7 (PSMB8)-specific substrate [5]: stimulated
surface expression of H-2Kq [6]: induced surface expression of H-2Kq
IRF1 expression [7]: induced
effect on IRF1 induction by IFNγ ([7]; added to IFNγ): strongly potentiated
STAT1 phosphorylation ([7]; added to IFNγ-treated cells): dramatically increased
transcription factor accessibility of chromosome 17 cluster Psmb9, Tap1, Psmb8, Tap2 [8]: increased transcription factor accessibility
accessibility of transcription factor binding sites at the Nfkb1 locus [8]: increased accessibility
nuclear amount of p300 and acetylated p300/CBP ([9]; Myc-CaP cells): enhanced the nuclear expression and acetylation of p300/CBP
nuclear abundance of p65, NF-κB, CREB1, ATF3, P-ATM and JunB [10]: persistent increases
expression of Ifngr2, Psmb9, Tap1, and Nlrc5 mRNAs in tumors [11]: enhanced expression
MHC-I machinery component expression [12]: upregulated
MHC-II surface expression ([12]; Oxali alone): did not respond to Oxali alone
MHC-II expression in macrophages co-stimulated with IFNγ ([12]; plus IFNγ): potentiated MHC-II expression
OT-I T-cell activation and tumor cell killing [13]: led to T-cell activation, resulting in tumor cell killing
HLA-ABC surface expression ([14]; MIA PaCa-2 cells): induced HLA-ABC surface expression
Psmb9 and Ifngr2 induction, BRAF (V600E) versus activated NRAS melanoma cells ([14]; panel of human melanoma cell lines): much more responsive
H3 acetylation (Lysine 14 and 27) of Psmb8 promotor region [15]: increased H3 acetylation
increase in nuclear HAT activity ([16]; after 3 hr of Oxali addition): 4 fold
HAT enzymatic activity ([16]; within 3 hr): increased
effect on HDACs in cytoplasm [17]: inhibitory effect
PSMB8 and PSMB9 protein expression [18]: induced
eIF2α phosphorylation and CHOP expression [19]: induced
γH2AX, marker of DNA damage [19]: γH2AX induction
Ifna, Ifnb and IL1b expression ([19]; 48 hr): increased

Cc1[nH]c2ccccc2c1CCNCc1ccc(/C=C/C(=O)NO)cc1 [Panabinostat]
transcriptional response (MHC-I gene induction) compared with low dose Oxali ([4]; HDAC inhibitor): nearly the same transcriptional response as low dose Oxali
Tap1, Nlrc5, Tapasin, Lmp2, and Ifngr2 mRNAs ([4]; dose that did not induce cell death): induced
surface H-2Kq expression on addition of low dose Oxali ([6]; Panabinostat plus low dose Oxali): potentiated
surface expression of H-2Kq [6]: induced

IFNγ: exogenous interferon gamma
effect on MHC-I genes compared with low-dose Oxali ([4]; IFNγ at 200 pg/mL, Myc-CaP and other cell lines): weaker than the effect of low-dose (2 μM) Oxali
Ifngr2 mRNA ([4]; IFNγ on its own, any of the analyzed cell lines): did not induce
amounts of H-2Db MHC-I-bound peptides [20]: higher amounts of MHC-I-bound peptides than Oxali treated cells
IRF1 expression [7]: weak IRF1 induction
transcription factor accessibility of chromosome 17 cluster Psmb9, Tap1, Psmb8, Tap2 [8]: barely affected
accessibility of transcription factor binding sites at the Nfkb1 locus [8]: barely had any effect
nuclear foci / nucleolar localization of p300 ([9]; high resolution imaging): not
eIF2α phosphorylation and CHOP expression [19]: no effect
